Measurements reported in patent US20250099407A1, “2-AMINO BENZOPHENONE DERIVATIVES FOR TARGETED FERROPTOSIS INDUCTION IN CANCER THERAPY” (INDIAN INSTITUTE OF TECHNOLOGY KANPUR, priority 2023, published 2025).

System: 4T1 cells
Assay: Combination cell viability experiments in 4T1 cells
Assay type: cell-based
Details: 4T1, Ferrostain-1 10 μM
Procedure: FIG. 14 depicts a combination experiment indicates the involvement of thiol modulation by IITK3001/IITK3002 on the viability of Huh-7 and 4T1 cells, in accordance with an embodiment of the present invention. The viability of screened cancer cells was recorded using a luminescence-based CellTiter-Glo® assay for the ATP quantification. The screening concentration of (a) IITK3001 and (b) IITK3002 ranged from 10 uM to 4.5 nM with an 8-point-3-fold dilution series in DMEM medium (>0.1% DMSO as control). For combination experiments, 500 μM of NAC or glutathione and 25 μM of BSO were used. Each experiment was conducted in more than two biological replicates with three technical replicates. The error bar is a representation of standard deviation among the technical replicates.
FIG. 17 depicts IITK3001-mediated ferroptosis induction as a cell death mechanism in 4T1 cells is recorded, in accordance with an embodiment of the present invention. The screening concentration of (a) IITK3001 and (b) IITK3002 ranged from 10 μM to 4.5 nM with an 8-point-3-fold dilution series. […]
FIG. 19 depicts IITK3001-mediated ferroptosis induction as a cell death mechanism in 4T1 cells is recorded, in accordance with an embodiment of the present invention. […]

## CN(C(=O)CCl)c1ccccc1C(=O)c1ccccc1 [IITK3001, N-(2-benzoylphenyl)-2-chloro-N-methylacetamide]
  effect of Fer-1 combination in 4T1 cells: negligible
